According to patent US20050058600A1, “3,3'-Diindolylmethane antiandrogenic compositions” (priority 2003, published 2005):

Experiments:
[1] = system: dimethylbenzanthracene (DMBA)-induced mammary tumors; details: rats; cited from earlier work
[2] = system: benzo(a)pyrene (BP)-induced tumors of the forestomach; details: mice; cited from earlier work
[3] = system: BP-induced pulmonary adenomas; details: mice; cited from earlier work
breast cancer cells = details: in culture; cited from earlier work
prostate cancer cells = details: cited from earlier work
[4] = system: skin surrounding the flank organ of the male Syrian hamster; test: Androgen-induced delay of hair growth in the Golden Syrian hamster; format: in vivo
Protocol: Mature male golden Syrian hamsters, 101-110 g, are obtained from Charles River Laboratories (Wilmington, Mass.). Pellet implant and blood drawing procedures are performed while animals are under general anaesthesia induced by isoflurane (Aerrane®, Fort Dodge Animal Health, Overland Park, Kans.). Testosterone propionate (TP) is administered in the form of 25 mg dose time-release pellets (Inovative Research of America, Toledo, Ohio). Antiandrogenic DIM derivatives (Example II, supra) are coadministered in parallel 25 mg dose time-release pellets. Control animals receive placebo pellets, which contain only carrier/binder excipients (cholesterol, lactose, celluloses, phosphates, and stearates).
Pellets are implanted subcutaneously. A skin incision is made with scissors on the upper dorsal side of the animal, equal in length to the pellet. A horizontal pocket is created with forceps about 2 cm beyond the incision site. Pellets are placed in the pocket with forceps, and incisions are then closed with a staple suture (Autoclip®, 9 mm, Stoelting Co., Wood Dale, Ill.). Immediately after pellet implantation, the fur on and around each flank organ is shaved with electric clippers. This is designated day 0 of the study. At day 7, the fur around the flank organ is re-clipped. […] On day 21 the surface diameters of the left and right flank organs (encompassed within the pigmented area) are measured with vernier callipers. […]
Sebaceous glands are evaluated in unstained whole mounts of ventral dermal sheets from the left ears. […] The gland areas are measured using an Optomax V image analysis system (Optomax, Hollis, N.H.). The percentage change in sebaceous gland size is calculated by comparing the testosterone-treated group with the placebo-treated group. Serum testosterone is measured by radioimmunoassay at an outside laboratory (AniLytics, Inc., Gaithersburg, Md.).
Hair growth is quantified using a visual grading system (0-3 scale, where 0=no growth, 3=full hair growth). […]

SMILES | incidence of DMBA-induced mammary tumors [1] | incidence of BP-induced tumors of the forestomach [2] | incidence of BP-induced pulmonary adenomas [3] | proliferation of breast cancer cells (breast cancer cells) | proliferation of prostate cancer cells (prostate cancer cells) | size of the flank organ and the ear sebaceous glands ([4]; 25 mg TP dose, after 21 days) | hair growth grade (0-3 scale) ([4]; TP alone, day 14) | hair growth ([4]; TP alone, day 21)
OCc1c[nH]c2ccccc12 [I3C, indole-3-carbinol, reference compound] | reduced the incidence | reduced the incidence | reduced the incidence | inhibit proliferation | inhibit proliferation |  |  | 
CCC(=O)O[C@H]1CC[C@H]2[C@@H]3CCC4=CC(=O)CC[C@]4(C)[C@H]3CC[C@]12C [TP, Testosterone propionate] |  |  |  |  |  | marked increase | 0 | insignificant
